Experimental findings from ChEMBL document CHEMBL3804819, “2-(Quinolin-4-yloxy)acetamides Are Active against Drug-Susceptible and Drug-Resistant Mycobacterium tuberculosis Strains” (ACS Med Chem Lett, 2016) are described below.

For data set [1], the species on record is Danio rerio. Put plainly: Toxicity in zebrafish embryo assessed as reduction in heart rate at 20 uM measured at 72 hrs post fertilization by stereo microscopic analysis. It is filed as organism-based. Conditions: in vivo.
The next data set deals with RAW264.7. Put plainly: Cytotoxicity against mouse RAW264.7 cells assessed as decrease in cell viability at 5 uM after 72 hrs by MTT assay. Conditions: raw264.7, 72 h. It counts as cell-based.
The test system of another data set is Staphylococcus aureus. Put plainly: Antibacterial activity against Staphylococcus aureus ATCC 25923 at 20 uM. It counts as functional, organism-based.
The test system of another data set is Liver. Put plainly: Metabolic stability in human liver S9 fraction at 2 uM measured up to 30 mins by HPLC/MS/MS analysis. It counts as ADME, subcellular. The settings on record: s9, 0.5 h.
The subject of data set [2] is Mycobacterium tuberculosis. Description: Antibacterial activity against Mycobacterium tuberculosis H37Rv assessed as reduction in bacterial growth after 7 days by resazurin assay. Conditions: 168 h. It is filed as functional.
The nature of data set [3]: Thermodynamic solubility of the compound at pH 1.5 after 24 hrs by HPLC analysis. It counts as physicochemical. The settings on record: buffer, read-out: Therm_solubility.
In data set [4] the test system is Mycobacterium tuberculosis. Put plainly: Antibacterial activity against Mycobacterium tuberculosis H37Rv infected in mouse RAW 264.7 cells assessed reduction in bacterial count per well at 5 uM after 3 days (reference value: 2.5 +/- 0.15 log10CFU). It is filed as functional.
The subject of another data set is Acinetobacter baumannii. Description: Antibacterial activity against Acinetobacter baumannii ATCC BAA 747 at 20 uM. It is filed as functional, organism-based.
A further data set relates to HaCaT. Description: Cytotoxicity against human HaCaT cells assessed as reduction in cell viability at 20 uM after 72 hrs by MTT assay. It is filed as cell-based.
Data set [5] can be described thus: Thermodynamic solubility of the compound at pH 7.4 after 24 hrs by HPLC analysis. It is filed as physicochemical. The settings on record: buffer, read-out: Therm_solubility.
The nature of data set [6]: Inhibition CYP450 in human liver microsomes by HPLC/MS/MS analysis in presence of NADPH. It is filed as ADME.
For the next data set, the system named is Pseudomonas aeruginosa. Description: Antibacterial activity against Pseudomonas aeruginosa ATCC 27853 at 20 uM. It is filed as functional, organism-based.
The test system of another data set is Vero. Description: Cytotoxicity against African green monkey Vero cells assessed as reduction in cell viability at 20 uM after 72 hrs by MTT assay. It counts as cell-based. Conditions: chlorocebus sabaeus.
For data set [7], the species on record is Danio rerio. Put plainly: Toxicity in zebrafish embryo assessed as reduction in heart rate at 5 uM measured at 72 hrs post fertilization by stereo microscopic analysis. It is filed as organism-based. The settings on record: in vivo.
In another data set the test system is Escherichia coli. Put plainly: Antibacterial activity against Escherichia coli ATCC 25922 at 20 uM. It counts as functional, organism-based.
Data set [8] is filed under the species Danio rerio. Description: Toxicity in zebrafish embryo assessed as reduction in heart rate at 1 uM measured at 72 hrs post fertilization by stereo microscopic analysis. It counts as organism-based. The settings on record: in vivo.

Converted amounts (≈) assume the structure as drawn. The source made the active and inactive calls. The calls are words filed in the database; no cut-off is given here.

`COc1ccc2nc(C)cc(OCC(=O)Nc3ccc(Br)cc3)c2c1`: the Activity result in the data set filed under Danio rerio [1] was “Toxic”; in the data set on RAW264.7, “Non-toxic”; in data set [4], 1.87 log10CFU; with HaCaT it was “Non-toxic”; with Vero it was “Non-toxic”; in the data set listed under Danio rerio [7] it was “Non-toxic”. Besides, in the data set filed under Danio rerio [8], the Activity result is reported as “Non-toxic”. The outcome in the data set with Staphylococcus aureus, in the data set on Acinetobacter baumannii, in the data set on Pseudomonas aeruginosa and in the data set with Escherichia coli was inactive. In addition, the Stability entry in the data set on Liver is recorded as “Stable”. Further, the MIC in data set [2] amounted to 0.1 µM (≈ 0.0401 µg/mL). In addition, the solubility thermodynamic at 24 h is 30 µM (≈ 12 µg/mL) in data set [3] and under 4.4 µM in data set [5]. Moreover, in data set [6], the IC50 was under 10 µM.

Take `COc1ccc2nc(C)cc(OCC(=O)Nc3ccc4c(c3)OCO4)c2c1`: the Activity result with RAW264.7 is “Non-toxic”; in data set [4], 1.77 log10CFU; with HaCaT, “Non-toxic”; in the data set with Vero, “Non-toxic”. The result in the data set on Staphylococcus aureus, in the data set on Acinetobacter baumannii, in the data set on Pseudomonas aeruginosa and in the data set on Escherichia coli was inactive. Also, the MIC in data set [2] was 0.42 µM (≈ 0.154 µg/mL).

Consider `COc1ccc2nc(C)cc(OCC(=O)Nc3ccccc3C)c2c1`, for which the Activity result with RAW264.7 is “Non-toxic”; in data set [4], 2.09 log10CFU; in the data set with HaCaT, “Non-toxic”; in the data set with Vero it was “Non-toxic”. Besides, the outcome in the data set on Staphylococcus aureus, in the data set with Acinetobacter baumannii, with Pseudomonas aeruginosa and in the data set with Escherichia coli was inactive. The MIC in data set [2] was 0.46 µM (≈ 0.155 µg/mL).

As to `COc1ccc2nc(C)cc(OCC(=O)Nc3ccc(C(F)(F)F)cc3)c2c1`, the Activity entry was “Non-toxic” in the data set on RAW264.7, 1.89 log10CFU in data set [4], “Non-toxic” in the data set with HaCaT and “Non-toxic” with Vero. Besides, the result in the data set on Staphylococcus aureus, in the data set on Acinetobacter baumannii, in the data set on Pseudomonas aeruginosa and with Escherichia coli was inactive. The minimal inhibitory concentration (MIC) in data set [2] stood at 0.8 µM (≈ 0.312 µg/mL).

Turning to `COc1ccc2nc(C)cc(OCC(=O)Nc3cccc(Cl)c3)c2c1`, the Activity result is “Non-toxic” in the data set on RAW264.7, 2.12 log10CFU in [4], “Non-toxic” in the data set on HaCaT and “Non-toxic” in the data set with Vero. Further, the outcome in the data set on Staphylococcus aureus, in the data set with Acinetobacter baumannii, with Pseudomonas aeruginosa and in the data set on Escherichia coli was inactive. For the same molecule, the MIC in [2] stood at 0.44 µM (≈ 0.157 µg/mL).

On to `COc1ccc(NC(=O)COc2cc(C)nc3ccc(OC)cc23)c(OC)c1`, for which the Activity entry in the data set listed under Danio rerio [1] is on record as “Toxic”; in the data set on RAW264.7, “Non-toxic”; in data set [4], 1.61 log10CFU; in the data set on HaCaT, “Non-toxic”; in the data set with Vero, “Non-toxic”; in the data set filed under Danio rerio [7] it was “Non-toxic”. The Activity entry in the data set filed under Danio rerio [8] is reported as “Non-toxic”. In addition, the outcome with Staphylococcus aureus, in the data set with Acinetobacter baumannii, in the data set on Pseudomonas aeruginosa and with Escherichia coli was inactive. For the same molecule, the Stability result in the data set on Liver is given as “Stable”. Moreover, in data set [2], the MIC was determined as 0.15 µM (≈ 0.0574 µg/mL). For the same molecule, the results for the solubility thermodynamic at 24 h in [3] and in [5] were 30 µM (≈ 11.5 µg/mL) and under 4.4 µM, respectively. The half-maximal inhibitory concentration (IC50) in data set [6] was under 10 µM.
